Results taken from patent US8546320B2, “Hsp9O-targeted anti-cancer chimeric peptide” (Kyoto University, priority 2008, dated 2013).
Where a SMILES comes first, the peptide text is derived from it.

How the values were obtained:
Caki-1 = assay type: cell-based, human; conditions: Caki-1; for Anti-cancer activity (% relative to wild-type peptide) / Decrease in cell survival rate (% relative to wild-type peptide): wild-type peptide = 100%
U937 = assay: cells; assay type: cell-based, human; conditions: for killing effect compared with the wild-type peptide / Anti-cancer activity (% relative to wild-type peptide) / Decrease in cell survival rate (% relative to wild-type peptide): U937; for Anti-cancer activity (% relative to wild-type peptide) / Decrease in cell survival rate (% relative to wild-type peptide): wild-type peptide = 100%
Method: A total of 3×10^3 cells per well were inoculated onto a 96 well plate, and incubated in a medium containing 10% FBS with 100 μl of a peptide diluted stepwise at 37° C. for 48 to 72 hours. The survival rate of the cells was measured by using WST-8 solution (Cell Count Reagent SF; Nacalai Tesque, Inc.).

cancer cells = assay: Cell viability assay, summary statements on cancer cells; assay type: cell-based; conditions: single mutation in TPR or Antp region of Antp-TPR

Structure (SMILES)	Anti-cancer activity (% relative to wild-type peptide) (Caki-1)	Decrease in cell survival rate (% relative to wild-type peptide) (Caki-1)	Cell Survival Rate (%) (U937)	killing effect compared with the wild-type peptide (U937)	Anti-cancer activity (% relative to wild-type peptide) (U937)	Decrease in cell survival rate (% relative to wild-type peptide) (U937)	effect compared with the wild-type protein (summary of mutations) (cancer cells)	killing effect compared with the wild-type peptide (Caki-1)
CC[C@H](C)[C@H](NC(=O)[C@H](CCCNC(=N)N)NC(=O)[C@H](C)NC(=O)[C@H](Cc1ccc(O)cc1)NC(=O)[C@H](C)NC(=O)[C@H](CCCCN)NC(=O)[C@H](CCCCN)NC(=O)[C@H](CCCCN)NC(=O)[C@H](Cc1c[nH]c2ccccc12)NC(=O)[C@H](CCCCN)NC(=O)[C@H](CCSC)NC(=O)[C@H](CCCNC(=N)N)NC(=O)[C@H](CCCNC(=N)N)NC(=O)[C@H](CC(N)=O)NC(=O)[C@H](CCC(N)=O)NC(=O)[C@H](Cc1ccccc1)NC(=O)[C@H](Cc1c[nH]c2ccccc12)NC(=O)[C@@H](NC(=O)[C@H](CCCCN)NC(=O)[C@@H](NC(=O)[C@H](CCC(N)=O)NC(=O)[C@@H](N)CCCNC(=N)N)[C@@H](C)CC)[C@@H](C)CC)C(=O)N[C@@H](C)C(=O)N[C@@H](CC(N)=O)C(=O)N[C@@H](CO)C(=O)N[C@@H](Cc1ccc(O)cc1)C(=O)N[C@@H](Cc1ccccc1)C(=O)N[C@@H](CCCCN)C(=O)O [Antp-G7A] (H-RQIKIWFQNRRMKWKKKAYARIANSYFK-OH; N-terminus and C-terminus assumed)	96.23%	76.07%	16.85%	increase in effect	108.32%	137.88%	effect similar to that of the wild-type protein	–
CC[C@H](C)[C@H](NC(=O)[C@H](CCCNC(=N)N)NC(=O)[C@H](C)NC(=O)[C@H](Cc1ccc(O)cc1)NC(=O)[C@H](C)NC(=O)[C@H](CCCCN)NC(=O)[C@H](CCCCN)NC(=O)[C@H](CCCCN)NC(=O)[C@H](Cc1c[nH]c2ccccc12)NC(=O)[C@H](CCCCN)NC(=O)[C@H](CCSC)NC(=O)[C@H](CCCNC(=N)N)NC(=O)[C@H](CCCNC(=N)N)NC(=O)[C@H](CC(N)=O)NC(=O)[C@H](CCC(N)=O)NC(=O)[C@H](Cc1ccccc1)NC(=O)[C@H](Cc1c[nH]c2ccccc12)NC(=O)[C@@H](NC(=O)[C@H](CCCCN)NC(=O)[C@@H](NC(=O)[C@H](CCC(N)=O)NC(=O)[C@@H](N)CCCNC(=N)N)[C@@H](C)CC)[C@@H](C)CC)C(=O)NCC(=O)N[C@@H](CC(N)=O)C(=O)N[C@@H](CO)C(=O)N[C@@H](Cc1ccc(O)cc1)C(=O)N[C@@H](Cc1ccc(O)cc1)C(=O)N[C@@H](CCCCN)C(=O)O [Antp-F11Y] (H-RQIKIWFQNRRMKWKKKAYARIGNSYYK-OH; N-terminus and C-terminus assumed)	110.50%	820.08%	1.10%	increase in effect	128.84%	2116.95%	effect higher than the wild-type protein	stronger than that of the wild-type peptide
CC[C@H](C)[C@H](NC(=O)[C@H](CCCNC(=N)N)NC(=O)[C@H](C)NC(=O)[C@H](Cc1ccc(O)cc1)NC(=O)[C@H](C)NC(=O)[C@H](CCCCN)NC(=O)[C@H](CCCCN)NC(=O)[C@H](CCCCN)NC(=O)[C@H](Cc1c[nH]c2ccccc12)NC(=O)[C@H](CCCCN)NC(=O)[C@H](CCSC)NC(=O)[C@H](CCCNC(=N)N)NC(=O)[C@H](CCCNC(=N)N)NC(=O)[C@H](CC(N)=O)NC(=O)[C@H](CCC(N)=O)NC(=O)[C@H](Cc1ccccc1)NC(=O)[C@H](Cc1c[nH]c2ccccc12)NC(=O)[C@@H](NC(=O)[C@H](CCCCN)NC(=O)[C@@H](NC(=O)[C@H](CCC(N)=O)NC(=O)[C@@H](N)CCCNC(=N)N)[C@@H](C)CC)[C@@H](C)CC)C(=O)NCC(=O)N[C@@H](CC(N)=O)C(=O)N[C@@H](CO)C(=O)N[C@@H](CO)C(=O)N[C@@H](Cc1ccccc1)C(=O)N[C@@H](CCCCN)C(=O)O [Antp-Y10S] (H-RQIKIWFQNRRMKWKKKAYARIGNSSFK-OH; N-terminus and C-terminus assumed)	74.56%	31.97%	28.05%	–	93.73%	82.83%	effect similar to that of the wild-type protein	–
CC[C@H](C)[C@H](NC(=O)[C@H](CCCNC(=N)N)NC(=O)[C@H](C)NC(=O)[C@H](Cc1ccc(O)cc1)NC(=O)[C@H](C)NC(=O)[C@H](CCCNC(=N)N)NC(=O)[C@H](CCCCN)NC(=O)[C@H](CCCCN)NC(=O)[C@H](Cc1c[nH]c2ccccc12)NC(=O)[C@H](CCCCN)NC(=O)[C@H](CCSC)NC(=O)[C@H](CCCNC(=N)N)NC(=O)[C@H](CCCNC(=N)N)NC(=O)[C@H](CC(N)=O)NC(=O)[C@H](CCC(N)=O)NC(=O)[C@H](Cc1ccccc1)NC(=O)[C@H](Cc1c[nH]c2ccccc12)NC(=O)[C@@H](NC(=O)[C@H](CCCCN)NC(=O)[C@@H](NC(=O)[C@H](CCC(N)=O)NC(=O)[C@@H](N)CCCNC(=N)N)[C@@H](C)CC)[C@@H](C)CC)C(=O)NCC(=O)N[C@@H](CC(N)=O)C(=O)N[C@@H](CO)C(=O)N[C@@H](Cc1ccc(O)cc1)C(=O)N[C@@H](Cc1ccccc1)C(=O)N[C@@H](CCCCN)C(=O)O [Antp-K1R] (H-RQIKIWFQNRRMKWKKRAYARIGNSYFK-OH; N-terminus and C-terminus assumed)	35.81%	15.70%	91.39%	–	11.22%	25.43%	effective but with a lower effect than the wild-type protein	–
CC[C@H](C)[C@H](NC(=O)[C@H](CCCNC(=N)N)NC(=O)[C@H](C)NC(=O)[C@H](Cc1ccc(O)cc1)NC(=O)[C@H](C)NC(=O)[C@H](CCCCN)NC(=O)[C@H](CCCCN)NC(=O)[C@H](CCCCN)NC(=O)[C@H](Cc1c[nH]c2ccccc12)NC(=O)[C@H](CCCCN)NC(=O)[C@H](CCSC)NC(=O)[C@H](CCCNC(=N)N)NC(=O)[C@H](CCCNC(=N)N)NC(=O)[C@H](CC(N)=O)NC(=O)[C@H](CCC(N)=O)NC(=O)[C@H](Cc1ccccc1)NC(=O)[C@H](Cc1c[nH]c2ccccc12)NC(=O)[C@@H](NC(=O)[C@H](CCCCN)NC(=O)[C@@H](NC(=O)[C@H](CCC(N)=O)NC(=O)[C@@H](N)CCCNC(=N)N)[C@@H](C)CC)[C@@H](C)CC)C(=O)NCC(=O)N[C@@H](CC(N)=O)C(=O)N[C@@H](CO)C(=O)N[C@@H](Cc1ccc(O)cc1)C(=O)N[C@@H](Cc1ccccc1)C(=O)N[C@@H](CCCNC(=N)N)C(=O)O [Antp-K12R] (H-RQIKIWFQNRRMKWKKKAYARIGNSYFR-OH; N-terminus and C-terminus assumed)	90.20%	54.95%	21.95%	increase in effect	101.68%	105.89%	effect similar to that of the wild-type protein	–
CC[C@H](C)[C@H](NC(=O)[C@H](CCCNC(=N)N)NC(=O)[C@H](C)NC(=O)[C@H](Cc1ccc(O)cc1)NC(=O)[C@H](C)NC(=O)[C@H](CCCCN)NC(=O)[C@H](CCCCN)NC(=O)[C@H](CCCCN)NC(=O)[C@H](Cc1c[nH]c2ccccc12)NC(=O)[C@H](CCCCN)NC(=O)[C@H](CCSC)NC(=O)[C@H](CCCNC(=N)N)NC(=O)[C@H](CCCNC(=N)N)NC(=O)[C@H](CC(N)=O)NC(=O)[C@H](CCC(N)=O)NC(=O)[C@H](Cc1ccccc1)NC(=O)[C@H](Cc1c[nH]c2ccccc12)NC(=O)[C@@H](NC(=O)[C@H](CCCCN)NC(=O)[C@@H](NC(=O)[C@H](CCC(N)=O)NC(=O)[C@@H](N)CCCNC(=N)N)[C@@H](C)CC)[C@@H](C)CC)C(=O)NCC(=O)N[C@@H](CCC(N)=O)C(=O)N[C@@H](CO)C(=O)N[C@@H](Cc1ccc(O)cc1)C(=O)N[C@@H](Cc1ccccc1)C(=O)N[C@@H](CCCCN)C(=O)O [Antp-N8Q] (H-RQIKIWFQNRRMKWKKKAYARIGQSYFK-OH; N-terminus and C-terminus assumed)	98.57%	89.35%	10.06%	increase in effect	117.17%	230.94%	effect higher than the wild-type protein	–
